Reference: patent US20070082880A1 (priority 2005, published 2007)

Target: T1, human PKCθ full length enzyme (Homo sapiens, UniProt Q04759)
T1 construct: human PKCθ full length enzyme (Panvera Catalog No. P2996); purchased Panvera P2996
Assay: PKCθ IMAP Assay
Assay type: biochemical
Conditions: average value when one or more samples were tested; ATP 6 uM, PKCθ 1 nM
Procedure: The materials used include the following: human PKCθ full length enzyme (Panvera Catalog No. P2996); substrate peptide: 5FAM-[…]-OH (Molecular Devices, RP7032); ATP (Sigma Cat # A2383); DTT (Pierce, 20291); 5× kinase reaction buffer (Molecular Devices, R7209); 5× binding buffer A (Molecular Devices, R7282), 5× binding buffer B (Molecular Devices, R7209); IMAP Beads (Molecular Devices, R7284); and 384-well plates (Corning Costar, 3710).
The reaction buffer was prepared by diluting the 5× stock reaction buffer and adding DTT to obtain a concentration of 3.0 mM. The binding buffer was prepared by diluting the 5× binding buffer A. A master mix solution was prepared using a 90% dilution of the reaction buffer containing 2×ATP (12 uM) and 2× peptide ([…]). […] The final concentration of compound was 2× and 10% DMSO. DMSO was added to the rest of the master mix to increase the concentration to 10%. 10 ul of the master mix containing 10% DMSO was added to the rest of the wells on the plate except the 2nd column. 20 ul was transferred from the first column to the 2nd column. The compounds were serially diluted in 2:1 ratio starting from the 2nd column. A 2× (2 nM) PKCθ solution was made in the reaction buffer. 10 ul of the PKCθ solution was added to every well to achieve these final concentrations: PKCθ—1 nM; ATP—6 uM; peptide—100 nM; DMSO—5%. Samples were incubated for 25 minutes at room temperature. The binding reagent was prepared by diluting the beads in 1× binding buffer to 800:1. 50 ul of the binding reagent was added to every well and incubated for 20 minutes. FP was measured using Envision2100 (PerkinElmer Life Sciences). Wells with no ATPs and wells with no enzymes were used as controls.

T1 sequence (Q04759 whole entry): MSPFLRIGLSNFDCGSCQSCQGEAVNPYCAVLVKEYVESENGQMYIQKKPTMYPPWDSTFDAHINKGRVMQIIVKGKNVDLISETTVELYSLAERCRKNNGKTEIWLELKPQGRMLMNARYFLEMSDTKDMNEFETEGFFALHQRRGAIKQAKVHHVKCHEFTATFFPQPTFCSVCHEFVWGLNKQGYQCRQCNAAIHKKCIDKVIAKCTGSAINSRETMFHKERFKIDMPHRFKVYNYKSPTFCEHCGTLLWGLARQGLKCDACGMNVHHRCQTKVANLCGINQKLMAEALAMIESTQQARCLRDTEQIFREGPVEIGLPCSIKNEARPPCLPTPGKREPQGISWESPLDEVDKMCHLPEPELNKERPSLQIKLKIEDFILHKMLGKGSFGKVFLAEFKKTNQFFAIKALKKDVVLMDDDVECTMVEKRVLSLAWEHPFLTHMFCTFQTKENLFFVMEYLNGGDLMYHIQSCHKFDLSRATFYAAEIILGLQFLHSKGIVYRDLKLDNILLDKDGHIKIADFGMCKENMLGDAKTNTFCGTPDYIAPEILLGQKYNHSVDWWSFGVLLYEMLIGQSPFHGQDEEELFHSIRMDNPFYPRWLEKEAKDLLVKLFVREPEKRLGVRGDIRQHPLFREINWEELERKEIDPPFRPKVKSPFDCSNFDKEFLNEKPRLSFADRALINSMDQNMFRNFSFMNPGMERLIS

Compound	IC50
2-{3-[2-(dimethylamino)ethyl]phenyl}-4-(1H-indol-5-ylamino)thieno[2,3-b]pyridine-5-carbonitrile [Compound 112]	0.069 µM
CN(C)c1ccc(-c2cc3c(Nc4ccc5[nH]ccc5c4)c(C#N)cnc3s2)cc1 [Compound 111, 2-[4-(dimethylamino)phenyl]-4-(1H-indol-5-ylamino)thieno[2,3-b]pyridine-5-carbonitrile]	0.37 µM
Cc1c(Nc2c(C#N)cnc3sc(-c4ccc(CN(C)C)cc4)cc23)ccc2[nH]ccc12 [Compound 113, 2-{4-[(dimethylamino)methyl]phenyl}-4-[(4-methyl-1H-indol-5-yl)amino]thieno[2,3-b]pyridine-5-carbonitrile]	0.014 µM
CN(C)Cc1ccccc1-c1cc2c(Nc3ccc4[nH]ccc4c3)c(C#N)cnc2s1 [Compound 114, 2-{2-[(dimethylamino)methyl]phenyl}-4-(1H-indol-5-ylamino)thieno[2,3-b]pyridine-5-carbonitrile]	0.57 µM
Cc1c(Nc2c(C#N)cnc3sc(-c4ccc(CN5CCN(C)CC5)cc4)cc23)ccc2[nH]ccc12 [Compound 121, 4-[(4-methyl-1H-indol-5-yl)amino]-2-{4-[(4-methylpiperazin-1-yl)methyl]phenyl}thieno[2,3-b]pyridine-5-carbonitrile]	0.038 µM
CN(c1ccc2[nH]ccc2c1)c1c(C#N)cnc2sc(-c3ccccc3)cc12 [Compound 122, 4-[1H-indol-5-yl(methyl)amino]-2-phenylthieno[2,3-b]pyridine-5-carbonitrile]	> 55 µM
CCc1c(Nc2c(C#N)cnc3sc(-c4ccccc4)cc23)ccc2[nH]ccc12 [Compound 126, 4-[(4-ethyl-1H-indol-5-yl)amino]-2-phenylthieno[2,3-b]pyridine-5-carbonitrile]	0.83 µM
N#Cc1cnc2sc(-c3cccc(CN4CCOCC4)c3)cc2c1Nc1ccc2[nH]ccc2c1 [Compound 146, 4-(1H-indol-5-ylamino)-2-[3-(morpholin-4-ylmethyl)phenyl]thieno[2,3-b]pyridine-5-carbonitrile]	0.55 µM
CN(C)Cc1ccc(-c2cc3c(Nc4ccc5[nH]ccc5c4)c(C#N)cnc3s2)o1 [Compound 153, 2-{5-[(dimethylamino)methyl]-2-furyl}-4-(1H-indol-5-ylamino)thieno[2,3-b]pyridine-5-carbonitrile]	0.17 µM
CN(C)Cc1cc(-c2cc3c(Nc4ccc5[nH]ccc5c4)c(C#N)cnc3s2)co1 [Compound 154, 2-{5-[(dimethylamino)methyl]-3-furyl}-4-(1H-indol-5-ylamino)thieno[2,3-b]pyridine-5-carbonitrile]	0.18 µM
COc1ccc(CN(C)C)cc1-c1cc2c(Nc3ccc4[nH]ccc4c3)c(C#N)cnc2s1 [Compound 155, 2-{5-[(dimethylamino)methyl]-2-methoxyphenyl}-4-(1H-indol-5-ylamino)thieno[2,3-b]pyridine-5-carbonitrile]	0.038 µM
Cc1c(Nc2c(C#N)cnc3sc(-c4ccccc4CN(C)C)cc23)ccc2[nH]ccc12 [Compound 156, 2-{2-[(dimethylamino)methyl]phenyl}-4-[(4-methyl-1H-indol-5-yl)amino]thieno[2,3-b]pyridine-5-carbonitrile]	0.093 µM
N#Cc1cnc2sc(-c3csc(CN4CC[C@H](O)C4)c3)cc2c1Nc1ccc2[nH]ccc2c1 [Compound 157, 2-(5-{[(3S)-3-hydroxypyrrolidin-1-yl]methyl}-3-thienyl)-4-(1H-indol-5-ylamino)thieno[2,3-b]pyridine-5-carbonitrile]	0.044 µM
N#Cc1cnc2sc(-c3csc(CN4CCC[C@H]4CO)c3)cc2c1Nc1ccc2[nH]ccc2c1 [Compound 158, 2-(5-{[(2S)-2-(hydroxymethyl)pyrrolidin-1-yl]methyl}-3-thienyl)-4-(1H-indol-5-ylamino)thieno[2,3-b]pyridine-5-carbonitrile]	0.057 µM
N#Cc1cnc2sc(-c3cccc(CN4CCCC4)c3)cc2c1Nc1ccc2[nH]ccc2c1 [Compound 159, 4-(1H-indol-5-ylamino)-2-[3-(pyrrolidin-1-ylmethyl)phenyl]thieno[2,3-b]pyridine-5-carbonitrile]	0.24 µM
